The text below walks through data of ChEMBL document CHEMBL6153106, “Synergistic Anti-Ferroptosis with a Minimalistic, Peroxide-Triggered Carbon Monoxide Donor for Parkinson's Disease” (J Med Chem, 2025).

Activity calls are given as the source filed them. The rule behind the calls is not given here.

In test [1] the test system is Mus musculus. Put plainly: Anti-parkinson activity in MPTP-induced male C57BL/6J mouse model assessed as increase in mean speed at 6 mg/kg, iv pretreated with compound for 1 day followed by MPTP-induction for 2 to 9 days and measured after 10 days by open field test. Format: functional, organism-based. The following applies: time 10.0 day.
The test system of test [2] is Mus musculus. Put plainly: Anti-parkinson activity in MPTP-induced male C57BL/6J mouse model assessed as reduction in NCOA4 level in midbrain at 6 mg/kg, iv pretreated with compound for 1 to 11 days followed by MPTP-induction for 1 to 5 days and measured on day 21. The following applies: time 21.0 day. Format: functional, organism-based.
Test [3] in a line: Induction of ONOO-induced CO release in PBS buffer at pH 7.4 assessed as retention time at 100 uM by gas chromatography analysis. Format: functional.
Test [4] can be described thus: Induction of H2O2-induced CO release in PBS buffer at pH 7.4 assessed as retention time at 100 uM by gas chromatography analysis. Format: functional.
Test [5] has as its system Mus musculus. Put plainly: Anti-parkinson activity in MPTP-induced male C57BL/6J mouse model assessed as increase in SLC7A11 expression in midbrain at 6 mg/kg, iv pretreated with compound for 1 to 11 days followed by MPTP-induction for 1 to 5 days and measured on day 26 by Western blot analysis. Format: functional, organism-based. The note with it: time 26.0 day. (In general: A western blot detects proteins with antibodies after separation by electrophoresis.)

Test [6] deals with Mus musculus. As to the kind of experiment: Anti-parkinson activity in MPTP-induced male C57BL/6J mouse model assessed as decrease in […] expression in midbrain at 6 mg/kg, iv pretreated with compound for 1 to 11 days followed by MPTP-induction for 1 to 5 days and measured on day 26 by Western blot analysis. Format: functional, organism-based. The following applies: time 26.0 day.

Test [7] deals with SH-SY5Y. As to the kind of experiment: Inhibition of ferroptosis in MPP+-induced human SH-SY5Y cells assessed as decrease in intracellular Fe2+ release by measuring fluorescence intensity at 10 uM pretreated with MPP+ for 20 hrs followed by compound treatment for 2 hrs by FerroOrange probe based confocal microscopic analysis. Format: functional, cell-based.
For test [8], the system named is Mus musculus. Put plainly: Anti-parkinson activity in MPTP-induced male C57BL/6J mouse model assessed as decrease in descending time at 6 mg/kg, iv pretreated with compound for 1 to 11 days followed by MPTP-induction for 1 to 5 days and measured on day 24 by pole test. Format: functional, organism-based. The following applies: time 24.0 day.
For test [9], the system named is Mus musculus. Put plainly: Anti-parkinson activity in MPTP-induced male C57BL/6J mouse model assessed as increase in TH level in substantia nigra pars compacta at 6 mg/kg, iv pretreated with compound for 1 to 11 days followed by MPTP-induction for 1 to 5 days and measured on day 26 by immunofluorescence analysis. The note with it: time 26.0 day. Format: functional, organism-based.

Test [10] relates to Mus musculus. As to the kind of experiment: Anti-parkinson activity in MPTP-induced male C57BL/6J mouse model assessed as increase in GPX4 expression in midbrain at 6 mg/kg, iv pretreated with compound for 1 to 11 days followed by MPTP-induction for 1 to 5 days and measured on day 26 by Western blot analysis. Format: functional, organism-based. The following applies: time 26.0 day.

Test [11] deals with Mus musculus. Put plainly: Anti-parkinson activity in MPTP-induced male C57BL/6J mouse model assessed as increase in TH expression in substantia nigra pars compacta at 6 mg/kg, iv pretreated with compound for 1 to 11 days followed by MPTP-induction for 1 to 5 days and measured on day 26 by immunostaining based analysis. Format: functional, organism-based. The note with it: time 26.0 day.

Test [12] relates to Mus musculus. Put plainly: Anti-parkinson activity in MPTP-induced male C57BL/6J mouse model assessed as improvement in hindlimb clasping reflex at 6 mg/kg, iv pretreated with compound for 1 to 11 days followed by MPTP-induction for 1 to 5 days and measured on day 24 by hindlimb clasping test. Format: functional, organism-based. The following applies: time 24.0 day.
The subject of test [13] is SH-SY5Y. Put plainly: Inhibition of ferroptosis in MPP+-induced human SH-SY5Y cells assessed as reduction in DMT1 level by Western blot analysis. Format: functional, cell-based.
The test system of test [14] is Mus musculus. Put plainly: Anti-parkinson activity in MPTP-induced male C57BL/6J mouse model assessed as increase in TH level in substantia nigra pars compacta at 6 mg/kg, iv pretreated with compound for 1 to 11 days followed by MPTP-induction for 1 to 5 days and measured on day 26 by Western blot analysis. Format: functional, organism-based. The following applies: time 26.0 day.

The nature of test [15]: Induction of ONOO-induced CO release in PBS buffer at pH 7.4 assessed as increase in fluorescence intensity at 100 uM incubated for 30 min by gas detector analysis. Format: functional.
Test [16] relates to Mus musculus. Put plainly: Anti-parkinson activity in MPTP-induced male C57BL/6J mouse model assessed as increase in total number of fecal pellets production at 6 mg/kg, iv pretreated with compound for 1 day followed by MPTP-induction for 2 to 9 days and measured after 10 days by elevated plus maze test. The note with it: time 10.0 day. Format: functional, organism-based.
Test [17] relates to SH-SY5Y. As to the kind of experiment: Inhibition of ferroptosis in MPP+-induced human SH-SY5Y cells assessed as reduction in 4-HNE level by Western blot analysis. Format: functional, cell-based.
In test [18] the test system is Mus musculus. As to the kind of experiment: Anti-parkinson activity in MPTP-induced male C57BL/6J mouse model assessed as reduction in 4-HNE level in midbrain at 6 mg/kg, iv pretreated with compound for 1 to 11 days followed by MPTP-induction for 1 to 5 days and measured on day 26 by Western blot analysis. The note with it: time 26.0 day. Format: functional, organism-based.

In test [19] the test system is Mus musculus. As to the kind of experiment: Anti-parkinson activity in MPTP-induced male C57BL/6J mouse model assessed as reduction in DMT1 level in midbrain at 6 mg/kg, iv pretreated with compound for 1 to 11 days followed by MPTP-induction for 1 to 5 days and measured on day 21. Format: functional, organism-based. The following applies: time 21.0 day.
Test [20] deals with Mus musculus. As to the kind of experiment: Anti-parkinson activity in MPTP-induced male C57BL/6J mouse model assessed as reduction in MDA level in midbrain at 6 mg/kg, iv pretreated with compound for 1 to 11 days followed by MPTP-induction for 1 to 5 days and measured on day 26 by Western blot analysis. Format: functional, organism-based. The following applies: time 26.0 day.

The test system of test [21] is SH-SY5Y. As to the kind of experiment: Inhibition of ferroptosis in MPP+-induced human SH-SY5Y cells assessed as decrease in intracellular ONOO release by measuring fluorescence intensity at 10 uM pretreated with MPP+ for 20 hrs followed by compound treatment for 2 hrs by HK-green-4I probe based confocal microscopic analysis. Format: functional, cell-based.
Test [22] is described as follows: Induction of ONOO-induced CO release in PBS buffer at pH 7.4 at 100 uM in presence of PdCl2 by fluorescence based analysis. Format: functional.
Test [23] deals with SH-SY5Y. As to the kind of experiment: Inhibition of ferroptosis in MPP+-induced human SH-SY5Y cells assessed as increase in GPX4 level by Western blot analysis. Format: functional, cell-based.
The subject of test [24] is Mus musculus. As to the kind of experiment: Anti-parkinson activity in MPTP-induced male C57BL/6J mouse model assessed as increase in total distance traveled at 6 mg/kg, iv pretreated with compound for 1 day followed by MPTP-induction for 2 to 9 days and measured after 10 days by open field test. Format: functional, organism-based. The note with it: time 10.0 day.
The test system of test [25] is Mus musculus. Put plainly: Anti-parkinson activity in MPTP-induced male C57BL/6J mouse model assessed as reduction in TFRC level in midbrain at 6 mg/kg, iv pretreated with compound for 1 to 11 days followed by MPTP-induction for 1 to 5 days and measured on day 21. Format: functional, organism-based. The following applies: time 21.0 day.
Test [26] in a line: Induction of ONOO-induced CO release in PBS buffer at pH 7.4 at 100 uM by gold-standard CO-myoglobin assay. Format: functional.
Test [27] has as its system Mus musculus. Put plainly: Anti-parkinson activity in MPTP-induced male C57BL/6J mouse model assessed as increase in distance traveled in open arms at 6 mg/kg, iv pretreated with compound for 1 day followed by MPTP-induction for 2 to 9 days and measured after 10 days by elevated plus maze test. Format: functional, organism-based. The following applies: time 10.0 day.

The subject of test [28] is SH-SY5Y. As to the kind of experiment: Inhibition of ferroptosis in MPP+-induced human SH-SY5Y cells assessed as induction of CO release by measuring increase in fluorescent intensity at 10 uM pretreated with MPP+ for 20 hrs followed by compound treatment for 30 mins by COP490 probe based confocal microscopic analysis. Format: functional, cell-based.
Test [29] has as its system Mus musculus. Put plainly: Anti-parkinson activity in MPTP-induced male C57BL/6J mouse model assessed as increase in latency period at 6 mg/kg, iv pretreated with compound for 1 to 11 days followed by MPTP-induction for 1 to 5 days and measured on day 24 by rotarod test. The note with it: time 24.0 day. Format: functional, organism-based. A general note: Falling from the rotarod earlier than controls is read as motor impairment.

The subject of test [30] is Mus musculus. As to the kind of experiment: Anti-parkinson activity in MPTP-induced male C57BL/6J mouse model assessed as increase in GPX4 expression in substantia nigra pars compacta at 6 mg/kg, iv pretreated with compound for 1 to 11 days followed by MPTP-induction for 1 to 5 days and measured on day 26 by immunostaining based analysis. Format: functional, organism-based. The following applies: time 26.0 day.

Test [31] concerns Mus musculus. Put plainly: Anti-parkinson activity in MPTP-induced male C57BL/6J mouse model assessed as increase in frequency of open arms entries at 6 mg/kg, iv pretreated with compound for 1 day followed by MPTP-induction for 2 to 9 days and measured after 10 days by elevated plus maze test. Format: functional, organism-based. The following applies: time 10.0 day.
Test [32] concerns Mus musculus. Put plainly: Anti-parkinson activity in MPTP-induced male C57BL/6J mouse model assessed as decrease in phosphorylated alpha-synuclein level in midbrain at 6 mg/kg, iv pretreated with compound for 1 to 11 days followed by MPTP-induction for 1 to 5 days and measured on day 26 by Western blot analysis. Format: functional, organism-based. The note with it: time 26.0 day.

For test [33], the system named is Mus musculus. Put plainly: Anti-parkinson activity in MPTP-induced male C57BL/6J mouse model assessed as decrease in total alpha-synuclein level in midbrain at 6 mg/kg, iv pretreated with compound for 1 to 11 days followed by MPTP-induction for 1 to 5 days and measured on day 26 by Western blot analysis. Format: functional, organism-based. The note with it: time 26.0 day.

A short description of test [34]: Induction of H2O2-induced CO release in PBS buffer at pH 7.4 assessed as increase in fluorescence intensity at 100 uM incubated for 30 min by gas detector analysis. Format: functional.
Test [35] relates to Mus musculus. As to the kind of experiment: Anti-parkinson activity in MPTP-induced male C57BL/6J mouse model assessed as reduction in free ferrous iron level in midbrain at 6 mg/kg, iv pretreated with compound for 1 to 11 days followed by MPTP-induction for 1 to 5 days and measured on day 21. Format: functional, organism-based. The note with it: time 21.0 day.
A short description of test [36]: Induction of ONOO-induced CO release in PBS buffer at pH 7.4 at 100 uM by HPLC analysis. Format: functional.
Test [37] can be described thus: Induction of H2O2-induced CO release in PBS buffer at pH 7.4 at 100 uM by HPLC analysis. Format: functional.

On to `COC(=O)C(=O)OC1(C)C(=O)Oc2ccc(F)cc21` (configuration not stated), for which the outcome in the test on Mus musculus [1], in the test with Mus musculus [2], in the test on Mus musculus [5], in the test on Mus musculus [6], in the test with Mus musculus [8] and in the test on Mus musculus [9] was Active. Also, the result (in the test with Mus musculus [10]; in the test with Mus musculus [11]; in the test on Mus musculus [12]; with Mus musculus [14]; in test [15]; in the test on Mus musculus [16]) was Active. For the same compound, the outcome (with Mus musculus [18]; in the test on Mus musculus [19]; in the test on Mus musculus [20]; in the test with Mus musculus [24]; in the test on Mus musculus [25]; in test [26]) was Active. Besides, the result in the test with Mus musculus [27], in the test with Mus musculus [29], in the test on Mus musculus [30], in the test with Mus musculus [31], in the test on Mus musculus [32] and in the test on Mus musculus [33] was Active. The result (in [34]; with Mus musculus [35]) was Active. Also, the Retention time in test [3] is 1.96 min; in test [4] it was 3.86 min. For the same compound, the inhibition entry in the test on SH-SY5Y [7], in the test on SH-SY5Y [13], with SH-SY5Y [17], in the test with SH-SY5Y [21], in the test on SH-SY5Y [23] and with SH-SY5Y [28] was “Active” in each case. In addition, the Activity result in [22] is “Weak_effect”.
As to `CC(=O)c1cc(F)ccc1O`, the outcome in test [36] and in test [37] was Active.
